As a reminder, the Ki is a measure of affinity in units of concentration, obtained from inhibition or displacement.

SMILES strings stand for the structures.

Test [1] in a line: Displacement of radioligand [3H]- DPDPE on Opioid receptor delta 1 in monkey brain membranes.
Test [2] can be described thus: Displacement of radioligand [3H]- U-69,593 on Opioid receptor kappa 1 in monkey brain membranes range; Value ranges from (9.7-14.2).
The nature of test [3]: Displacement of radioligand [3H]- DPDPE on Opioid receptor delta 1 in monkey brain membranes range; Value ranges from (34.0-43.2).
The nature of test [4]: Displacement of radioligand [3H]- DAMGO on Opioid receptor mu 1 in monkey brain membranes range; Value ranges from (0.32-0.91).

With `O=C(/C=C/c1ccc(Cl)cc1)N[C@@]12CCC(=O)[C@@H]3Oc4c(O)ccc5c4[C@@]31CCN(CC1CC1)[C@@H]2C5` [1N-[4-cyclopropylmethyl-10-hydroxy-14-oxo-(17S)-12-oxa-4-azapentacyclo[9.6.1.01,13.05,17.07,18]octadeca-7,9,11(18)-trien-17-yl]-3-(4-chlorophenyl)-(E)-2-propenamide(Clocinnamox (C-CAM))], the Ki in test [1] was found to be 1.6 nM.

As to `COc1ccc2c3c1O[C@H]1C(=O)CC[C@@]4(NC(=O)/C=C/c5ccc(Cl)cc5)[C@@H](C2)N(CC2CC2)CC[C@]314` [1N-[4-cyclopropylmethyl-10-methoxy-14-oxo-(13R)-12-oxa-4-azapentacyclo[9.6.1.01,13.05,17.07,18]octadeca-7,9,11(18)-trien-17-yl]-3-(4-chlorophenyl)-(E)-2-propenamide], in test [1], the Ki is 4.5 nM. On to `O=C(/C=C/c1ccc(Cl)cc1)NC12CCC(=O)C3Oc4cccc5c4[C@@]31CCN(CC1CC1)C2C5` (stereo partly drawn) [1N-[4-cyclopropylmethyl-14-oxo-(13R)-12-oxa-4-azapentacyclo[9.6.1.01,13.05,17.07,18]octadeca-7,9,11(18)-trien-17-yl]-3-(4-chlorophenyl)-(E)-2-propenamide], for which the Ki in test [2] stood at 12 nM; in test [3], 37 nM; in test [4], 0.54 nM.
